# From a melting point compilation (Tetko et al.; mined from patent text by program, amines drawn as free bases though some values may be those of a salt)
row,SMILES,melting point [°C]
1,COc1ccc2c(c1)c1c(n2CCBr)C(=O)CCC1,119
2,Clc1ccc(C2(Cn3cncn3)OCCO2)s1,117
3,O=C(O)c1ccc(F)c(Nc2ncccc2-c2ccncn2)c1,95
4,N#Cc1ccc(CC(NC(=O)C(Cc2ccccc2)S(=O)(=O)Nc2ccc3ccccc3c2)C(=O)N2CCCCC2)cc1 (stereo not given),210
5,CCCCOC(=O)CNC(=O)c1ccc2cc(C(=O)O)[nH]c2c1,267 to 268
6,COc1cc2ncnc(Nc3cccc(C)c3)c2c(N)c1OC,181 to 182
7,CC(C)(C)OC(=O)CN1C(=O)C(NC(=O)Nc2cccc(Cl)c2)CC(c2ccccc2)CC1Cc1ccccc1 (stereo not given),95 to 110
8,O=C1NC(=O)C2(CC(O)c3ccccc32)N1 (stereo not given),260 to 263
9,CCCc1c(OCCCOc2cccc3c2CCCC3)ccc2c1OC(CCC(=O)OC)(CCC(=O)N1CCCC1)CC2=O (stereo not given),106 to 107
10,CC1C(=O)N(c2cccc(F)c2)C(=S)N1c1ccc(Oc2ccccc2)cc1 (stereo not given),116
11,O=C(CCl)c1cc(Br)ccc1O,79
12,COc1ccc(-c2ccc(-c3nc(-c4ccc(C(F)(F)F)cc4)oc3C)cc2)cc1,167 to 168
13,Fc1ccc(-c2nccc(Oc3cccc(C(F)(F)F)c3)n2)cc1,52
14,O=c1ccc2nc3ccccc3sc-2c1Cl,221
15,O=c1[nH][nH]c(=O)n1-c1ccc(Cl)cc1,234 to 236
16,Oc1ccc(-c2ccc(O)c3cc(O)c(O)cc23)cc1O,224 to 226
17,Cc1onc(-c2ccccc2)c1C(=O)N(CCN(C)C)c1ccccc1,88 to 89
18,Nc1ccn(C[C@@H]2O[C@H](CO)[C@@H](O)[C@@H]2O)c(=O)n1,230 to 232
19,Cc1cc(S(N)(=O)=O)sc1S(=O)(=O)CCO,144 to 148
20,CNC(=C[N+](=O)[O-])NCCSCc1csc(CN2CCCCC2)c1,101 to 103
21,CCC1(C)CC(O)CC(C)(C)N1OC(C)c1ccccc1 (stereo not given),58 to 69
22,O=C(c1cccc(Oc2ccccc2)c1)c1cccc(Br)n1,65 to 66
23,CCOC(=O)c1cc(/C=C/c2ccc(O)cc2)ccc1O,269 to 271
24,Cn1nc(-c2c(F)cccc2Cl)nc1C(C)(O)c1ccc(Cl)cc1 (stereo not given),198 to 200
25,CCOC(=O)c1cn(-c2ncns2)c2cc(F)c(F)cc2c1=O,149 to 152

row,SMILES,melting point [°C]
1,COC(=O)CCCc1cccc(NC(=O)[C@@H](CSC(C)=O)Cc2ccccc2)c1,87 to 88.5
2,COc1cc(C(=N)N)ccc1OCc1ccc(CN2C(=O)c3ccccc3C2=O)cc1,228 to 230
3,COc1cc2c(cc1OC)CN(CCN(C)Cc1ccc(NC(=O)c3cccc4c(=O)c5cccc(OC)c5[nH]c34)cc1)CC2,202
4,CC(=O)Nc1ccc2oc3c(c2c1)CCCC3,196 to 198
5,OC1CCCCc2cc(OCC3CCCCC3)ccc21 (stereo not given),102 to 103
6,O=c1[nH]c2ccccc2n1CCCCCCCl,80 to 84
7,OCCCOc1ccc(-n2ccnc2)cc1,76 to 78
8,O=C(Nc1ccc(-n2nc(C(F)(F)F)cc2C(F)(F)F)cc1)C1CC1c1ccccc1 (stereo not given),176 to 178
9,COc1ccc(C#N)c(F)c1OC,64 to 65
10,COc1c(NC(=O)c2ccc(Br)cc2)cccc1[N+](=O)[O-],162 to 163
11,COCc1cc(OC)c(-c2ccc(C[C@H](NC(=O)c3c(F)cccc3Cl)C(=O)O)cc2)c(OC)c1,170 to 175
12,O=C(NCc1ccccn1)Nc1cc(N2CC3(CCCCC3)CC2=O)ccn1,191 to 192
13,COc1cc(/C=C/C=C/C(=O)NCCCN2CCC(c3c[nH]c4ccccc34)CC2)cc(OC)c1O,176 to 179
14,COc1cc2ccc(CO)c(-c3ccnc(Br)c3)c2cc1OC,150 to 153
15,Cc1nc(Sc2ncccc2CC(=O)O)sc1CC(=O)O,172 to 174
16,CCCOc1oc(=O)c2cc(NC(=O)NCC)ccc2c1Cl,189 to 191
17,O=C(Oc1cc(O)ccn1)c1ccccc1,124 to 127
18,COc1ccc(-c2nc(CCn3ccnc3)nc3cc(OC)c(OC)cc23)cc1OC,147 to 148
19,O=C(CCl)N1CC=C(c2cccc(C(F)(F)F)c2)n2ncc(Cl)c21,116 to 119
20,Nc1ccc(Oc2ncc(Cl)cn2)cc1,125
21,CCCCc1ncc(CC(Cc2cccs2)C(=O)O)n1Cc1ccc(C(=O)O)cc1 (stereo not given),175
22,CCCc1ncc(C(=O)OCC)c(NCc2ccc(-c3ccccc3-c3nnn[nH]3)cc2)n1,146 to 147
23,O=C(O)Cc1ccc2[nH]cc(CCNC(=O)OCc3ccccc3)c2c1,116 to 117
24,CC(CCC=CC(=O)O)C1CCC2C3CCC4CC(O)CCC4(C)C3CC(O)C12C (stereo not given),204 to 208
25,CCOC(C)O[C@H]1C(=O)N[C@H]1C=Cc1ccccc1 (stereo not given in full),98 to 99
